Among the data in ChEMBL document CHEMBL1128893, “Synthesis and characterization of N-(acenaphth-5-yl)-N'-(4-methoxynaphth-1-yl)guanidine as a glutamate release inhibitor and potential anti-ischemic agent” (Bioorg Med Chem Lett, 1995) are IC50 and Block values, retold here.

The structures appear in SMILES notation.

Test [1] addresses T1, Sodium channel protein type 2 subunit alpha (Homo sapiens, UniProt Q99250). Put plainly: (§1) Blockade of synaptosomal sodium channels, inhibition of [14C]guanidinium ion flux into CHO cells expressing Type II sodium channel.
Test [2] deals with T1, Sodium channel protein type 2 subunit alpha. The test is described as §1. The class given is functional, cell-based.
Test [3] can be described thus: Inhibition of 45 [Ca2+] flux into rat brain synaptosomes depolarized by elevated potassium concentrations. Type of test: functional, subcellular.
The next test is filed under the species Rattus norvegicus. Put plainly: Compound was evaluated for the inhibition of K+ -evoked glutamate release through block of voltage-gated [Ca2+] -channels, in the rat brain synaptosomal preparations. The class given is functional, organism-based.
In test [4] the target is Sodium channel alpha subunits; brain (Types I, II, III) (Rattus norvegicus) (UniProt P04775+P04774+P08104). The note with it: at 3 µM.
Description: Inhibition of veratridine-induced glutamate release, blockade of rat brain synaptosome voltage-gated sodium channels at 3 uM

T1 sequence (Q99250 whole entry): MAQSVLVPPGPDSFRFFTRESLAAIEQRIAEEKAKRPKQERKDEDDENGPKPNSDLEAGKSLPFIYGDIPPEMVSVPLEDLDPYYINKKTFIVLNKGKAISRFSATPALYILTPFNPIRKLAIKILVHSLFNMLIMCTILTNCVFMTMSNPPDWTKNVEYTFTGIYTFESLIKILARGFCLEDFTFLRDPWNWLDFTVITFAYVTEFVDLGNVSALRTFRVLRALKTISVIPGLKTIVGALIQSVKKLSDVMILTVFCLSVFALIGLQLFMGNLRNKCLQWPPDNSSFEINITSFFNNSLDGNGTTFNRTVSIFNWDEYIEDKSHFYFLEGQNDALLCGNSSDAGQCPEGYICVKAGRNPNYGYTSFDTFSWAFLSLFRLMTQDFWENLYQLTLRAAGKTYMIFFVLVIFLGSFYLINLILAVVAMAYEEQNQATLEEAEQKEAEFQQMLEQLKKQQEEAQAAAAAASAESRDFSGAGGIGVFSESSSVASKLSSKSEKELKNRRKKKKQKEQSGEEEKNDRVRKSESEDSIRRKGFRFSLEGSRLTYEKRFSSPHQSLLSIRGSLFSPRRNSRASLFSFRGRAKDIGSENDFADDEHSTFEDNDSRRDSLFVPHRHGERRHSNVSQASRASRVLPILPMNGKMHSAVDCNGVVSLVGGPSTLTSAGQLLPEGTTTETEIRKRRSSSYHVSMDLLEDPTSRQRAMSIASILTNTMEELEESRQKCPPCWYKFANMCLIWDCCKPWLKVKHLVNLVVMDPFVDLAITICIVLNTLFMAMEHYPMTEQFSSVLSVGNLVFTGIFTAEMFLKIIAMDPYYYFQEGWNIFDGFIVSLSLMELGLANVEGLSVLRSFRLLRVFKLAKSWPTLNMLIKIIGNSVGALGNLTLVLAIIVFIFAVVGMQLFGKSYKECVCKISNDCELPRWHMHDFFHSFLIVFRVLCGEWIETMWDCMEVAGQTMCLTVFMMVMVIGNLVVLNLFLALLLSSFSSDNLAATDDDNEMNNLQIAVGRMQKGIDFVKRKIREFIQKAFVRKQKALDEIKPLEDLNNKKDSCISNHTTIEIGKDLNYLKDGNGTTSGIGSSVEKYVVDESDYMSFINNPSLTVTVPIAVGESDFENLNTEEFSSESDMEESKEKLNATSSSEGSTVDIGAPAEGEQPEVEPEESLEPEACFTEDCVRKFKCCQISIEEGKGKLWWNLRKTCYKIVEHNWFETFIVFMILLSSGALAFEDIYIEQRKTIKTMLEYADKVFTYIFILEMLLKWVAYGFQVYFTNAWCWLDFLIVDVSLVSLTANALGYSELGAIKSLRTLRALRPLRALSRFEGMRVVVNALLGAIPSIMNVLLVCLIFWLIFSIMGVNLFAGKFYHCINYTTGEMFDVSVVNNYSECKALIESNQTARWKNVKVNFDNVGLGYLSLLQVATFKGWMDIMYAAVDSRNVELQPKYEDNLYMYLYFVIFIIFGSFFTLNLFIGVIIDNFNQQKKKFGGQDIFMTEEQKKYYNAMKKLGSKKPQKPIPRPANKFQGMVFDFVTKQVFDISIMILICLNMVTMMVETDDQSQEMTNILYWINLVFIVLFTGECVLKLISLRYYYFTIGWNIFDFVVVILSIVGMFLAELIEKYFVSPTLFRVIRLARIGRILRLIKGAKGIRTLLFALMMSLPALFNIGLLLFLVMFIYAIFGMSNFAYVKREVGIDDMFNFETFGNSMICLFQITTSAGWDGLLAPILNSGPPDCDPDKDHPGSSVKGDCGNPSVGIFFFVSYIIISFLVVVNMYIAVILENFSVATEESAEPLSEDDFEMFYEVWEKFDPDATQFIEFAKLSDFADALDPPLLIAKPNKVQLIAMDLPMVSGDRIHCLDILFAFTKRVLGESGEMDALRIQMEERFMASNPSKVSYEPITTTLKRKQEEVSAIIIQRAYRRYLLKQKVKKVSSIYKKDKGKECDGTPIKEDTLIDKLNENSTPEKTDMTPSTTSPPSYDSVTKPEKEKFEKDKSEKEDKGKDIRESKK

As to `CN1CCN(c2ncc(-c3cc(Cl)cc(Cl)c3Cl)c(N)n2)CC1` [SIPATRIGINE], inhibition in test [1] was half-maximal at 2550 nM (IC50).
`COc1ccc(/N=C(\N)Nc2ccc3c4c(cccc24)CC3)c2ccccc12`: the IC50 (as a rule, the concentration that gives 50% inhibition) in test [2] stood at 1310 nM; in test [3], 2240 nM; in the test filed under Rattus norvegicus, 1000 nM. Besides, in test [4], the Block was 87%.
On to `Nc1nc2ccc(OC(F)(F)F)cc2s1` [RILUZOLE], for which the IC50 in test [2] was 2200 nM; in test [3], greater than 30000 nM. In test [4], the Block came out at 49%.
As for `N=C(Nc1ccc2c3c(cccc13)CC2)Nc1ccc2c3c(cccc13)CC2`, the IC50 in test [2] worked out at 2030 nM; in test [3] it was 1130 nM; in the test listed under Rattus norvegicus, 800 nM.
